Laboratory results published in publication PMC10693528, “A high-throughput metabolomics in vitro platform for the characterization of hepatotoxicity” (Cell Biology and Toxicology, 2023).

How the values were obtained:
[1] = test system: HepG2 cells; assay: LC-MS/MS targeted intracellular metabolomics; type: cell-based, human; details: Suppl Fig 10, C3 (C2 for Aroclor), 48 h
Outline: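 Metabolites extracted in-plate from HepG2 cells with 80% isopropanol and analysed by RP and HILIC LC-MS/MS in positive and negative mode. Data normalised to lyophilised untreated HepG2 reference samples and to each sample's median across 221 metabolites. Treated versus control compared by Welch t test on log-transformed data.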

[2] = test system: HepG2 cells; assay: Cytotoxicity (CellTox Green) in parallel with metabolomics experiments; details: intermediate concentration (C3; C2 for aroclor), 48 h
Protocol: Commercially available cytotoxicity (CellTox™ Green) and ATP content based (CellTiter-Glo®) assays (Promega GmbH, Walldorf, Germany) were multiplexed in a single 96-well plate following the manufacturer’s instructions. For positive controls, lysis solution 25X was added in wells containing vehicle control treated cells (0.5% DMSO). Then, 10X CellTox Green reagent was added in all wells, plates were shaken for 1 min, and incubated in the dark for 15 min at room temperature. […] Afterwards, wells were washed with PBS, 100 μL of Dulbecco’s MEM media were added to each well and subsequently 100 μL of 1X CellTiter-Glo were added. Plates were shaken for 2 min and incubated in the dark for 8 min at room temperature. Luminescence was measured in the GloMax®-Multi Detection System (Promega) and was normalized to the values of the vehicle control. Cytotoxicity and ATP cell viability analysis were carried out for range finder pre-tests and in parallel with metabolomics experiments in plates handled and treated exactly as the ones used for metabolite profiling.

O=c1cc(-c2ccccc2)oc2ccc3ccccc3c12 [β-naphthoflavone]
Carnitine level vs controls [1]: 0.88 | Ceramide (d16:1.C24:0) level vs controls [1]: 1.20 | Ceramide (d17:1.C24:0) level vs controls [1]: 1.24 | Ceramide (d18:1.C20:0) level vs controls [1]: 0.73 | Ceramide (d18:1.C22:1) level vs controls [1]: 0.65 | Ceramide (d18:1.C24:1) level vs controls [1]: 0.64 | Ceramide (d18:2.C16:0) level vs controls [1]: 1.48 | Ceramide (d18:2.C23:0) level vs controls [1]: 1.56 | Ceramide (d18:2.C24:0) level vs controls [1]: 1.41 | Ceramide (d18:2.C24:1) level vs controls [1]: 1.23 | Choline plasmalogen (C36:4) level vs controls [1]: 0.82 | Choline plasmalogen (C36:5) level vs controls [1]: 0.84 | Cysteinylglycine level vs controls [1]: 3.16 | Flavin adenine dinucleotide (FAD) level vs controls [1]: 1.63 | Glutathione (GSH) level vs controls [1]: 2.59 | Hexanoylcarnitine level vs controls [1]: 1.02 | Isopentenyl pyrophosphate (IPP) level vs controls [1]: 2.43 | Lysophosphatidylcholine (C14:0) level vs controls [1]: 1.48 | Lysophosphatidylcholine (C16:0) level vs controls [1]: 2.15 | Lysophosphatidylcholine (C20:0) level vs controls [1]: 2.34 | Lysophosphatidylcholine (C20:1) level vs controls [1]: 2.23 | Lysophosphatidylcholine (C20:4) level vs controls [1]: 1.68 | Lysophosphatidylcholine (C22:0) level vs controls [1]: 1.99 | Lysophosphatidylcholine (C24:0) level vs controls [1]: 2.67 | Lysophosphatidylcholine (C24:1) level vs controls [1]: 2.34 | Lysophosphatidylethanolamine (C16:0) level vs controls [1]: 1.77 | Lysophosphatidylethanolamine (C18:0) level vs controls [1]: 2.25 | N-Acetylglucosamine level vs controls [1]: 0.79 | N-Acetylserine level vs controls [1]: 1.03 | O-Acetylcarnitine level vs controls [1]: 0.87 | Pantothenic acid level vs controls [1]: 0.96 | Phosphatidylcholine (C32:0) level vs controls [1]: 1.16 | Phosphatidylcholine (C34:0) level vs controls [1]: 1.39 | Phosphatidylcholine (C34:2) level vs controls [1]: 0.77 | Phosphatidylcholine (C34:3) level vs controls [1]: 0.60 | Phosphatidylcholine (C36:0) level vs controls [1]: 1.62 | Phosphatidylcholine (C36:1) level vs controls [1]: 1.21 | Phosphatidylcholine (C36:2) level vs controls [1]: 0.80 | Phosphatidylcholine (C36:3) level vs controls [1]: 0.87 | Phosphatidylcholine (C36:4) level vs controls [1]: 1.08 | Phosphatidylcholine (C38:6) level vs controls [1]: 1.09 | Phosphatidylethanolamine (C32:0) level vs controls [1]: 1.63 | Phosphatidylethanolamine (C34:0) level vs controls [1]: 1.79 | Phosphatidylethanolamine (C34:1) level vs controls [1]: 1.38 | Phosphatidylethanolamine (C34:2) level vs controls [1]: 0.93 | Phosphatidylethanolamine (C36:0) level vs controls [1]: 2.10 | Phosphatidylethanolamine (C36:1) level vs controls [1]: 1.81 | Phosphatidylethanolamine (C36:3) level vs controls [1]: 0.84 | Phosphatidylethanolamine (C38:5) level vs controls [1]: 0.93 | Phosphatidylethanolamine (C40:7) level vs controls [1]: 0.79 | Proline level vs controls [1]: 0.64 | Propionylcarnitine level vs controls [1]: 1.03 | Sphingomyelin (d32:1) level vs controls [1]: 0.84 | Sphingomyelin (d35:1) level vs controls [1]: 1.06 | Sphingomyelin (d38:2) level vs controls [1]: 0.94 | Sphingomyelin (d40:2) level vs controls [1]: 0.77 | Sphingomyelin (d41:2) level vs controls [1]: 0.85 | Sphingomyelin (d42:2) level vs controls [1]: 0.74 | Triacylglycerol (C30:0.C18:1) level vs controls [1]: 0.36 | Triacylglycerol (C32:0.C16:1) level vs controls [1]: 0.41 | Triacylglycerol (C32:1.C16:1) level vs controls [1]: 0.26 | Triacylglycerol (C34:0.C18:1) level vs controls [1]: 0.47 | Triacylglycerol (C34:1.C16:0) level vs controls [1]: 0.39 | Triacylglycerol (C34:1.C18:1) level vs controls [1]: 0.47 | Triacylglycerol (C34:2.C18:0) level vs controls [1]: 0.40 | Triacylglycerol (C34:2.C18:1) level vs controls [1]: 0.24 | Triacylglycerol (C36:1.C18:0) level vs controls [1]: 0.46 | Triacylglycerol (C36:1.C18:1) level vs controls [1]: 0.35 | Triacylglycerol (C36:1.C18:2) level vs controls [1]: 0.46 | Triacylglycerol (C36:2.C18:1) level vs controls [1]: 0.41 | Triacylglycerol (C36:3.C18:1) level vs controls [1]: 0.38 | Tyrosine level vs controls [1]: 1.14 | myo-Inositol-2-phosphate level vs controls [1]: 0.65 | Sphingomyelin (d34:2) level vs controls ([1]; first of two lines with this name): 1.05 | Sphingomyelin (d34:2) level vs controls ([1]; second of two lines with this name): 1.07 | cytotoxicity (CellTox Green) [2]: low cytotoxicity
